This is an account of results in PMC8979514 (Journal of Enzyme Inhibition and Medicinal Chemistry, 2022).

Where two headings read alike, the source gives them in different places.

A short description of data set [1]: in vitro. The class given is cell-based, human. As to conditions: human. The method, then:
(§1) Human neuroblastoma SH-SY5Y and human liver hepatocellular HepG2 cell lines were purchased from the American Type Culture Collections (ATCC). SH-SY5Y cells were cultured in a Dulbecco’s Modified Eagle Medium (DMEM) supplemented with Ham F12 medium (ratio 1:1), whereas HepG2 cells in Eagle’s Minimum Essential Medium (EMEM). Additionally, all culture medium was supplemented with 10% foetal bovine serum (FBS), streptomycin (100 µg/mL) and penicillin (100 U/mL). The cells were seeded into flasks containing supplemented medium and maintained in a humidified atmosphere of 5% CO2 and 95% air at 37 °C. The cell viability assay was performed in confluence of the cells in serum free medium (without FBS) was 80–90%.
(§2) […]. SH-SY5Y cells and HepG2 cells were seeded on 96-well plate with a density of 27–29 × 10^3 cells/well and 12–14 × 10^3/well respectively. […]. The DMSO concentration of every well in final dilutions was equal to or less than 0.1%. After incubation with compounds, MTT was added and 2 h later, the absorbance was measured at 492 nm. The result was expressed as the percentage of control cells (cultured in serum-free medium containing 0.1% of DMSO) which was set to 100%. The MTT test was performed in three independent replications. Data analysis was performed by using GraphPad Prism 5.0 Software.
(§3) . HepG2 is a commonly used in vitro model for the investigation of hepatocytotoxic effect of xenobiotics [40]^,[41]. In our study, we evaluated the toxicity of our new analogs against […]. […]

Another data set deals with SH-SY5Y cells. Kind of data set: in vitro. The data set is classed as cell-based, human. The note with it: 100 µM, 24 h incubation, MTT, mean ± SD. As to the method:
as §1, §2
(§4) SH-SY5Y a standard cell line used for determining neurocytotoxic effect of potential drug. Moreover it is well-established in vitro model of neurodegenerative disorders. […].

Data set [2] can be described thus: in vitro. The data set is classed as cell-based, human. The note with it: human. The method, then: as §1, §2, §4
This is another data set of the same source.

Data set [3] concerns the target T1, butyrylcholinesterase (BChE, E.C. 3.1.1.8) (Equus caballus, UniProt P81908).
T1 construct: purchased Sigma Aldrich
The data set can be described thus: biochemical. Details: species or system equine serum. As to conditions: BChE from equine serum. As to the method: (§5) [33] Inhibitory activity was tested at room temperature on 96-well plate using Ellman’s method. Lyophilised powders of AChE and BChE were dissolved in phosphate buffer (pH 7.5, 0.1 M) with 1% BSA.
(§6) Each well was filled to a total volume of 330 µL. The content inculded 285 µL of phosphate buffer, 5 µL 2 units/mL of eeAChE/BChE, 10 µL 0.01 M of DTNB, 10 µl of tested compound (for the control wells 10 µL of the phosphate buffer instead of tested compound) and 20 µL (7.5 mM) ATCh/BTCh. The hydrolysis of ATCh/BTCh was initiated by adding it to the well directly before the measurement. The absorbance was recorded at 1 min intervals for 8 min in total. The percent of inhibition was calculated by nonlinear regression analysis of the response–concentration (log) curve as a percentage of the reaction rate of the tested compounds over the control. Data analysis was performed by using GraphPad Prism 5.0 Software to give the IC50 values. The experiment was carried out in triplicate.

The target of data set [4] is T2, Acetylcholinesterase (eeAChE, E.C. 3.1.1.7) (Electrophorus electricus, UniProt O42275).
T2 construct: purchased Sigma Aldrich
T2 sequence (O42275 24-633): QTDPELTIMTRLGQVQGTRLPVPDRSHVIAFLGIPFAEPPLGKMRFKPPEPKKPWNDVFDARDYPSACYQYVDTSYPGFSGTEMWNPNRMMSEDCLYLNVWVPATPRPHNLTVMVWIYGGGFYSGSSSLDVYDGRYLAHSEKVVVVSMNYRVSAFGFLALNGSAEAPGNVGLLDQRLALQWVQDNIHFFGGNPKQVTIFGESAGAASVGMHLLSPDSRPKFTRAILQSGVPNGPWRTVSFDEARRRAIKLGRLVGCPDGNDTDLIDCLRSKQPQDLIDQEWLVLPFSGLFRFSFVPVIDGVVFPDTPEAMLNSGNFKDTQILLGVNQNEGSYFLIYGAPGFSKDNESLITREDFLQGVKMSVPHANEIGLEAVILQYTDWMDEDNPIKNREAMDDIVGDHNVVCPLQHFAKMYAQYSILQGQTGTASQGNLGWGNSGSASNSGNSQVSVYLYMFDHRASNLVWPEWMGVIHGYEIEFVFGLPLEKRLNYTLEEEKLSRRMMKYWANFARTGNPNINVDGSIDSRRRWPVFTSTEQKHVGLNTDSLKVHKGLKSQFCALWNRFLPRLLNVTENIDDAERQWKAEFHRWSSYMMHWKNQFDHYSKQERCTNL
The data set can be described thus: biochemical. As to conditions: for IC50: eeAChE; for Selectivity IC50(eeAChE)/ IC50(BChE): ratio of IC50 values. The class given is biochemical, electric eel. As to the method:
as §5, §6

The subject of another data set is HepG2 cells. Kind of data set: in vitro. The class given is cell-based, human. As to conditions: HepG2 cells. As to the method: as §1, §2, §3
The conditions of data set [5]: cited from earlier work.
[6] abbreviates: MTT, 24 h incubation, read-out: Cytotoxicity on HepG2 cells IC50.
The mark [7] stands for this setting: 12.5 µM, 24 h incubation, MTT, mean ± SD, read-out: Cells viability of SH-SY5Y cell line (% of control).
The mark [8] stands for this setting: 50 µM, 24 h incubation, MTT, mean ± SD, read-out: Cells viability of SH-SY5Y cell line (% of control).
Where [9] appears, read: 100 µM, 24 h incubation, MTT, mean ± SD, read-out: Cells viability of SH-SY5Y cell line (% of control).
Setting [10] is: Ellman's method, phosphate buffer pH 7.5, room temperature, read-out: IC50 BChE.
[11] abbreviates: value in brackets under the IC50, read-out: pIC50 ± S.E.M. BChE (converted).
The mark [12] stands for this setting: Ellman's method, phosphate buffer pH 7.5, room temperature, read-out: IC50 AChE.
Where [13] appears, read: value in brackets under the IC50, read-out: pIC50 ± S.E.M. AChE (converted).
The mark [14] stands for this setting: Cells viability of SH-SY5Y cell line (% of control).

T1 sequence (P81908 whole entry): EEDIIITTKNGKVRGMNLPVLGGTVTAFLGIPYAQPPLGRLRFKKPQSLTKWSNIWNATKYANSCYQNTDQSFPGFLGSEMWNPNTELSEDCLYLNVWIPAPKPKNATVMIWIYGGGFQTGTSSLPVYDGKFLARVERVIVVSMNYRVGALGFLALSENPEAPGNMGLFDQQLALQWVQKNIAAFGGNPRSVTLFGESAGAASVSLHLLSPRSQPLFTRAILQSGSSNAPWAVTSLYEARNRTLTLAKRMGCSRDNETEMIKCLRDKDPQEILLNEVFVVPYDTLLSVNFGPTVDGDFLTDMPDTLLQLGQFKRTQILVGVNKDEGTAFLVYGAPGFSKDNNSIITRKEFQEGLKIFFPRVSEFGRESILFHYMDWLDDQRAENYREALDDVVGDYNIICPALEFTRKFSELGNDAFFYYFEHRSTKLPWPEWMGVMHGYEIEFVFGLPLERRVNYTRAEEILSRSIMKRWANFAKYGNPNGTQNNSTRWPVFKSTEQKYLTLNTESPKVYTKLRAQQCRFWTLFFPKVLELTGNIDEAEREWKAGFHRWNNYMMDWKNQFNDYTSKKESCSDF

As to `CCOP(=O)(OCC)OCCCNc1c2c(nc3ccccc13)CCCC2` [Compound 16, Diethyl(3-((1,2,3,4-tetrahydroacridin-9-yl)amino)propyl)phosphate], the IC50 is 114 µM in the data set “in vitro [1]” (setting [6]); 17.1 nM in data set [3] (setting [10]); 17.1 nM in data set [3] (setting [11]); 246 nM in data set [4] (setting [12]); 245 nM in data set [4] (setting [13]). Besides, the “Cells viability of SH-SY5Y cell line (% of control)” value in the data set on SH-SY5Y cells is listed as 83.47 ± 8.6 % of control. The viability at 12.5 µM in the data set “in vitro [2]” (setting [7]) was determined as 88.1 ± 7.8%. The viability at 50 µM in the data set “in vitro [2]” (setting [8]) is 80 ± 7.7%. Moreover, the viability at 100 µM in the data set “in vitro [2]” (setting [9]) is 83.5%. The “Selectivity IC50(eeAChE)/ IC50(BChE)” value in data set [4] was determined as 14.36.
Turning to `CCOP(=O)(OCC)OCCNCCNc1c2c(nc3ccccc13)CCCC2` [Compound 19, Diethyl(2-((2-((1,2,3,4-tetrahydroacridin-9-yl)amino)ethyl)amino)ethyl)phosphate], the “hepatocytotoxicity in MTT assay (in words)” value with HepG2 cells is on record as “lack of hepatocytotoxicity”. Further, the IC50 in “in vitro [1]” (setting [6]) was above 600 µM; in data set [3] (setting [10]), 111 nM; in data set [3] (setting [11]), 112 nM; in data set [4] (setting [12]), 677 nM; in data set [4] (setting [13]), 676 nM. Besides, the “Cells viability of SH-SY5Y cell line (% of control)” value in the data set on SH-SY5Y cells was 81.12 ± 5.0 % of control. In the data set “in vitro [2]” (setting [7]), the viability at 12.5 µM turned out to be 85.5 ± 12.6%. In addition, in the data set “in vitro [2]” (setting [8]), the viability at 50 µM was determined as 82.6 ± 3.2%. The viability at 100 µM in “in vitro [2]” (setting [9]) was found to be 81.1%. Further, the “Selectivity IC50(eeAChE)/ IC50(BChE)” value in data set [4] is reported as 6.08.
With `Nc1c2c(nc3ccccc13)CCCC2` [Tacrine, 9-amino-1,2,3,4-tetrahydroacridine, reference compound], the IC50 in the data set “in vitro [1]” is 190 µM. In addition, in “in vitro [2]” (setting [14]), the viability at 12.5 µM amounted to 98.7 ± 4.5%, the viability at 50 µM is 97.2 ± 2.1% and the viability at 100 µM stood at 68.9 ± 2.9%. In addition, in data set [5], the “bioavailability of the oral formulation” value is 9.9–36.4%.
